These results are taken from patent US4900757A, “Hypocholesterolemic and antiatherosclerotic uses of bix(3,5-di-tertiary-butyl-4-hydroxyphenylthio)methane” (Merrell Dow Pharmaceuticals Inc., priority 1988, dated 1990).

One assay has as its system mice. Conditions: cited from earlier work.
The test system of a further assay is human LDL. As to the kind of experiment: Inhibition of LDL peroxidation (cupric sulfate, thiobarbituric acid assay; Example 3). As to conditions: ratio of ID50, in words.
Assay [1] concerns Watanabe heritable hyperlipidemic (WHHL) rabbit. As to the kind of experiment: Antiatherosclerotic and hypocholesterolemic effects in the Watanabe Heritable Hyperlipidemic rabbit (Example 2). Type of assay: in vivo. Conditions: for Aortic Lesions, as a percent of control group / HDL Protein, as a percent of control group / LDL Cholesterol, as a percent of control group / Plasma Cholesterol, as a percent of control group: mean vs respective control group. An excerpt:
Divide Watanabe Heritable Hyperlipidemic rabbits (WHHL), 13 to 15 weeks of age, into two treatment groups of 4 to 5 rabbits each. To one treatment group feed standard rabbit chow [Control Group], and to the other group feed standard rabbit chow containing the test compound (1% by weight) [Treatment Group]. In one experiment, probucol is the active treatment [Treatment Group A]. In another experiment, bis(3,5-di-tertiarybutyl-4-hydroxyphenylthio)methane is the active treatment [Treatment Group B].
After 12 weeks of treatment, sacrifice the study animals and take plasma and aorta samples. Determine for each study animal the extent of the atherosclerotic lesions of the aorta by the method of Badimon et al. [Atherosclerosis 61, 57 (1986)]. Determine for each study animal plasma cholesterol concentrations by an enzymatic method using a DACOS analyzer (Coulter Electronics Inc., Hialeah, Florida, USA). Isolate plasma lipoproteins by sequential ultracentrifugation and determine LDL and HDL cholesterol and protein by the method of Mao et al. [Biochemistry 14, 4127 (1975)].

For a further assay, the system named is WHHL rabbit. As to conditions: in words; cited from earlier work.
Assay [2] has as its system LDL. Conditions: in vitro; in words; cited from earlier work.
The test system of assay [3] is LDL. Conditions: in words; cited from earlier work.
Setting [4] is: 1% (w/w) in feed, 12 weeks, in words.

Turning to `CC(C)(C)c1cc(SCSc2cc(C(C)(C)C)c(O)c(C(C)(C)C)c2)cc(C(C)(C)C)c1O`, the “reduction in the blood cholesterol of mice, in words” value with mice (comparable treatment (to 2 weeks probucol)) is “no reduction”. Also, the “effectiveness in inhibiting peroxidation of human LDL relative to probucol” value with human LDL is “over twice as effective”. For the same compound, in assay [1] (1% (w/w) in feed, 12 weeks), the “Aortic Lesions, as a percent of control group” value is recorded as -38%; the “HDL Protein, as a percent of control group” value is reported as “+8%”; the “LDL Cholesterol, as a percent of control group” value was -35%; the “Plasma Cholesterol, as a percent of control group” value is given as -20%. In addition, in assay [1] (setting [4]), the “amount of HDL in the blood, as measured by HDL protein” value was “increased”; the “reduction of LDL cholesterol compared with probucol” value is “to a greater extent than probucol”; the “reduction of aortic lesions compared with probucol” value was “to a greater extent than probucol”; the “reduction of plasma cholesterol compared with probucol” value was “to a greater extent than probucol”. Also, in assay [1] (in words), the “progression of atherosclerosis in the WHHL rabbit” value is “prevents the progression of atherosclerosis” and the “serum cholesterol in the WHHL rabbit” value is “reduces serum cholesterol”.
For `CC(C)(Sc1cc(C(C)(C)C)c(O)c(C(C)(C)C)c1)Sc1cc(C(C)(C)C)c(O)c(C(C)(C)C)c1` [Probucol, 2,2'-bis(3,5-di-tertiary-butyl-4-hydroxyphenylthio)propane, reference compound], the “preventing the progression of atherosclerosis in WHHL rabbit” value in the assay on WHHL rabbit is listed as “effective in preventing the progression of atherosclerosis”. Moreover, in the assay on mice (2 week treatment), the “reduction in the blood cholesterol of mice” value is 59%. The “inhibition of oxidative modification of LDL by cupric ions” value with LDL [2] is “inhibits the oxidative modification of LDL”. Moreover, the “inhibition of oxidative modification of LDL by endothelial cells” value in the assay on LDL [3] is “inhibits the oxidative modification of LDL”. Besides, in assay [1] (1% (w/w) in feed, 12 weeks), the “Aortic Lesions, as a percent of control group” value was -33%; the “HDL Protein, as a percent of control group” value was -21%; the “LDL Cholesterol, as a percent of control group” value is -15%; the “Plasma Cholesterol, as a percent of control group” value is -12%. Moreover, in assay [1] (setting [4]), the “amount of HDL in the blood, as measured by HDL protein” value is “decreased”.
